In patent US20220281821A1, “INDAZOLE COMPOUNDS AND THEIR PHARMACEUTICAL COMPOSITIONS” (Jinan University, priority 2019, published 2022):

Key:
BaF3-ETV6-NTRK2 = target: T1, BaF3-ETV6-NTRK2 (Homo sapiens, UniProt Q16620); test: Cell proliferation inhibition (CCK-8), BaF3-ETV6-NTRK2 stable strain; type: cell-based, mouse; conditions: BaF3-ETV6-NTRK2, 72 hours
T1 construct: fused on or other part: P41212 (Transcription factor ETV6)
Protocol: (§1) The brief steps of stable strain construction are as follows: construct a pCDNA3.1(+) plasmid vector carrying genes such as CD74-NTRK1, ETV6-NTRK2 and ETV6-NTRK3; the plasmid was electroporated into Ba/F3 cells using the Amaxa® Cell Line Nucleofector® Kit V; 48 hours after electroporated, G418 with a final concentration of 1000 μg/ml was added for screening for two weeks, and then IL3 was removed, and continued screening to obtain polyclonal stable strains; then single clones were selected by a limiting dilution method. The stable strains were then identified using positive drugs, WB and gene sequencing; and the monoclonal clones that were identified as completely correct may be used for the study of cell proliferation inhibitory activity of inhibitors.
(§2) Cell proliferation inhibition activity study: the cells in the logarithmic growth phase were seeded into 96-well plates at 8000-12000 cells/well, and inhibitors at different concentrations (0-10 μM) were added the next day, and incubation was continued for 72 hours; then 10 μL of CCK-8 reagent was added to each well, and the incubation was continued for 1-3 hours; and then use a super microplate reader to measure their absorbance values at 450 nm and 650 nm. The half-inhibition concentration (IC50) was calculated using GraphPad Prism 8.0.0.

BaF3-CD74-NTRK1 = target: T2, BaF3-CD74-NTRK1 (Homo sapiens, UniProt P04629); test: Cell proliferation inhibition (CCK-8), BaF3-CD74-NTRK1 stable strain; type: cell-based, mouse; conditions: BaF3-CD74-NTRK1, 72 hours
T2 construct: fused on or other part: P04233 (HLA class II histocompatibility antigen gamma chain)
Protocol: as §1, §2

TRKC = target: T3, TRKC (Homo sapiens, UniProt Q16288); test: Z′-LYTE kinase activity assay, TRKC; type: biochemical; conditions: ATP 50 uM
T3 construct: purchased life technologies PV3617
Source text: (§3) Kinase activity assay: Z′-LYTE™ technology (detection by fluorescence, enzyme-conjugated format, based on the difference in sensitivity of phosphorylated and non-phosphorylated peptides to proteolytic cleavage) was applied, and using the principle of fluorescence resonance energy transfer (FRET), a Z′-LYTE™ FRET peptide substrate (Z′-LYTE™ Tyrosine 1 Peptide Substrate, Invitrogen, PV3190), and a secondary reaction were used to detect the inhibitory activity of the compounds on TRKs (TRK1, TRK2, TRK3) (life technologies, PV3144, PV3616, PV3617).
(§4) Enzymatic reaction: In a 384-well plate, 5 μL of an enzyme-substrate system (50 mM HEPES pH 7.5, 0.01% BRIJ-35, 10 mM MgCl2, 1 mM EGTA, 2 μM Tyr 01 Peptide Substrate) was added and 5 nL of compound (concentration gradient) was transferred thereto by using the echo520 ultramicro liquid pipetting system. […] After shaking and mixing, centrifuging was performed. A reaction was carried out at 30° C. in the dark for 1.5 hours.
(§5) The data were analyzed as follows:
(§6) IC50 values were calculated by using GraphPad Prism 5.0 software.

TRKA = target: T4, TRKA (Homo sapiens, UniProt P04629); test: Z′-LYTE kinase activity assay, TRKA; type: biochemical; conditions: ATP 400 uM
T4 construct: purchased life technologies PV3144
Source text: as §3, §4, §5
(§7) Phosphorylation ratio=1−{(emission ratio×F100%−C100%)/[C0%−C100%+emission ratio×(F100%−F0%)]}×100;
(§8) Inhibition rate=100×(1−compound phosphorylation ratio/negative control phosphorylation ratio).
as §6

BaF3-ETV6-NTRK3 = target: T5, BaF3-ETV6-NTRK3 (Homo sapiens, UniProt Q16288); test: Cell proliferation inhibition (CCK-8), BaF3-ETV6-NTRK3 stable strain; type: cell-based, mouse; conditions: BaF3-ETV6-NTRK3, 72 hours
T5 construct: fused on or other part: P41212 (Transcription factor ETV6)
Protocol: as §1, §2

TRKB = target: T6, TRKB (Homo sapiens, UniProt Q16620); test: Z′-LYTE kinase activity assay, TRKB; type: biochemical; conditions: ATP 25 uM
T6 construct: purchased life technologies PV3616
Source text: as §3, §4, §5, §7, §8, §6

T5 sequence (Q16288 whole entry, the tested form may be a part): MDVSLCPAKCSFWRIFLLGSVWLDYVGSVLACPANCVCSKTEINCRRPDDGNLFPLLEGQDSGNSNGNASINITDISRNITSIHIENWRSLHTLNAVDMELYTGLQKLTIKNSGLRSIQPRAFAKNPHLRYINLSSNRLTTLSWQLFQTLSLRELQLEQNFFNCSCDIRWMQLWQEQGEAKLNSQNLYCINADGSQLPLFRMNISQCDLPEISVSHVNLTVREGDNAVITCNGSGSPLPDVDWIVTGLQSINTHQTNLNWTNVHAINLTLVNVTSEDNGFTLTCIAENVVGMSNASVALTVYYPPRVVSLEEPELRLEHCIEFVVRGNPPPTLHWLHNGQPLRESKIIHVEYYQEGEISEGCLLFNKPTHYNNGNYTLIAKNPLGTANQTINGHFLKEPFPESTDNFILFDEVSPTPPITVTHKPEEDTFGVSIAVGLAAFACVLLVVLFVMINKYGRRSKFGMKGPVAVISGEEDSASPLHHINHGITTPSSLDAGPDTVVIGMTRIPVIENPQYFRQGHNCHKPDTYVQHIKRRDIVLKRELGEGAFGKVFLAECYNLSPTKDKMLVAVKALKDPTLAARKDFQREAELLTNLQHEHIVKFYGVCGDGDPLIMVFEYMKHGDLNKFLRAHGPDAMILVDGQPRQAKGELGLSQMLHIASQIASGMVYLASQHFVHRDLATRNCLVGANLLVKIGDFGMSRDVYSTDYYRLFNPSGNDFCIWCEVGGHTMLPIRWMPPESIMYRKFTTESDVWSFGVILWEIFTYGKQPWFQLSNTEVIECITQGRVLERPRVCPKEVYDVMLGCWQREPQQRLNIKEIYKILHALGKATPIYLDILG
T1 sequence (Q16620 538-822 limits assumed): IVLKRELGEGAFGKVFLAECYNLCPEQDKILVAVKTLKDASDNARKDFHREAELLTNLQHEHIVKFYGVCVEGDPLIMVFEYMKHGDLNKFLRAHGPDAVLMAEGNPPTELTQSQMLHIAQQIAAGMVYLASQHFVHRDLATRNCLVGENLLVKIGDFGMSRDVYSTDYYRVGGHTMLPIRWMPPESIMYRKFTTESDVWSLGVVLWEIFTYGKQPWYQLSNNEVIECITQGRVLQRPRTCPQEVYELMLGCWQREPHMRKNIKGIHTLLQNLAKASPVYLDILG
T6 sequence (Q16620 32-822): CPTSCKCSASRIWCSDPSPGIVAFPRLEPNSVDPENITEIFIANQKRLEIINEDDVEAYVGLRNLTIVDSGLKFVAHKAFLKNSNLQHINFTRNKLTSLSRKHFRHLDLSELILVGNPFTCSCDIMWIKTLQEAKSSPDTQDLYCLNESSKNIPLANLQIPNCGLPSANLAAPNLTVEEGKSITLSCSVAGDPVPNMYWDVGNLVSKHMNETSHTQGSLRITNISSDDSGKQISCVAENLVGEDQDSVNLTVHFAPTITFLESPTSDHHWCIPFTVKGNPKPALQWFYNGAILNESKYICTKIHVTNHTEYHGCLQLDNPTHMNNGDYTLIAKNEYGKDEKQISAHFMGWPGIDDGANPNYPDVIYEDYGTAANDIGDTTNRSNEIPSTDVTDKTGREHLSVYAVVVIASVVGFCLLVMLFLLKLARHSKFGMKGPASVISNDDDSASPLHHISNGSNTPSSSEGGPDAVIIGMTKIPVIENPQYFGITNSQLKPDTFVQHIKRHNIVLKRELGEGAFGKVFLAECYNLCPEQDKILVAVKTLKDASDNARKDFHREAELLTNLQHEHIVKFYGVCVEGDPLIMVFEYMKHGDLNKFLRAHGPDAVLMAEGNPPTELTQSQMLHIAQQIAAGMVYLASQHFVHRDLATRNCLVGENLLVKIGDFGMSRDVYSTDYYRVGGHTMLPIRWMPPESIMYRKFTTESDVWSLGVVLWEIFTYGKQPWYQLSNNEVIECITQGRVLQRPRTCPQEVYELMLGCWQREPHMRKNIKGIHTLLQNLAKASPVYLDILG
T2 sequence (P04629 510-796 limits assumed): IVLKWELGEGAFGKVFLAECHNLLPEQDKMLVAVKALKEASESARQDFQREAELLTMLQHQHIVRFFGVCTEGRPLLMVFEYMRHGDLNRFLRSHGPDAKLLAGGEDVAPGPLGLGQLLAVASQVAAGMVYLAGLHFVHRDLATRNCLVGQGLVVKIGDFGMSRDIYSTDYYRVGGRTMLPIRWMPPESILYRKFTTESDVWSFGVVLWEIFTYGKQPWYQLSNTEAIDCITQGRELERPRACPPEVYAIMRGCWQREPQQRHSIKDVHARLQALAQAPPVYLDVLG
T4 sequence (P04629 440-796 limits assumed): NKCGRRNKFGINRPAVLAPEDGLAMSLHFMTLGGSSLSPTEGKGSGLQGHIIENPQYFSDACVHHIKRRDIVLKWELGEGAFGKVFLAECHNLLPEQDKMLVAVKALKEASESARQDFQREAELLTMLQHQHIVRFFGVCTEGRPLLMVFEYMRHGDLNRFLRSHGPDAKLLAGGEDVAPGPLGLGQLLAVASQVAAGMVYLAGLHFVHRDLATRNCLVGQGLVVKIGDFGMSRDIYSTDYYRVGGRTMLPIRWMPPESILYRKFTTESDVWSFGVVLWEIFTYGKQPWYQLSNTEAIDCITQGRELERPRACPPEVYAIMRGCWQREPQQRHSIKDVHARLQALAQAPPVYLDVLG
T3 sequence (Q16288 32-839): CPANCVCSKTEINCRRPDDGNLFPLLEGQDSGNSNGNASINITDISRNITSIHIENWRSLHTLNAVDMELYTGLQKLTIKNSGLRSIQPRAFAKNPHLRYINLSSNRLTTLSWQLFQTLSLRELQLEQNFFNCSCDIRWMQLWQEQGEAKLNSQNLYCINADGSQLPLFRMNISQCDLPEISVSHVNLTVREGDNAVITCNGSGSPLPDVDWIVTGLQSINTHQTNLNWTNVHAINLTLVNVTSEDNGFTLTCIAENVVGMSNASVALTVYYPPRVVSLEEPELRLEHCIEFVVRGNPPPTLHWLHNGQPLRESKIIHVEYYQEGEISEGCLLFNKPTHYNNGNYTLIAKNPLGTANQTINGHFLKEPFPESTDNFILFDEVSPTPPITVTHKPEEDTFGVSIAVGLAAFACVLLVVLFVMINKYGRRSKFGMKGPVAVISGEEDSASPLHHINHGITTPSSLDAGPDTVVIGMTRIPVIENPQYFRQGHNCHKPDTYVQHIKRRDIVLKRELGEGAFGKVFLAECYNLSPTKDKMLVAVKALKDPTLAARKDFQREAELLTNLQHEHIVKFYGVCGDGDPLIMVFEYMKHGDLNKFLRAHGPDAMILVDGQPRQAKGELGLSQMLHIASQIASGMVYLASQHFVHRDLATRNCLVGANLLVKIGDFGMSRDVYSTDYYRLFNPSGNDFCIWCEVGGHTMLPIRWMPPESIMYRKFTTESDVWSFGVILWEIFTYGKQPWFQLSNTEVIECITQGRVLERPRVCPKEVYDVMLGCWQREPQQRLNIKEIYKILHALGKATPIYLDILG

For `Fc1ccc(Cc2ccc3[nH]nc(C#Cc4ccccn4)c3c2)cc1F` [DYX-044, 5-(3,4-difluorobenzyl)-3-(pyridin-2-ylethynyl)-1H-indazole], the IC50 (BaF3-ETV6-NTRK2) was greater than 10 µM, the IC50 (BaF3-CD74-NTRK1) was greater than 10 µM and the IC50 (TRKC) was 0.652 µM. It also gave an IC50 (TRKA) of 0.501 µM, an IC50 (BaF3-ETV6-NTRK3) greater than 10 µM and an IC50 (TRKB) greater than 1 µM.
For `Fc1cc(F)cc(OCc2ccc3[nH]nc(/C=C/c4ccccn4)c3c2)c1` [DYX-176], the IC50 (BaF3-ETV6-NTRK2) was 2.52 µM, the IC50 (BaF3-CD74-NTRK1) was 0.627 µM and the IC50 (TRKC) was 0.0065 µM. For the same molecule, the IC50 (TRKA) was 0.0071 µM, the IC50 (BaF3-ETV6-NTRK3) was 1.04 µM and the IC50 (TRKB) was 0.0214 µM.
`CN(Cc1cc(F)cc(F)c1)c1ccc2[nH]nc(/C=C/c3ccccn3)c2c1` [DYX-187, (E)-N-(3,5-difluorobenzyl)-N-methyl-3-(2-(pyridin-2-yl)vinyl)-1H-indazol-5-amine] was tested, and the IC50 (BaF3-ETV6-NTRK2) was 0.625 µM, the IC50 (BaF3-CD74-NTRK1) was 0.172 µM and the IC50 (TRKC) was 0.0062 µM. For the same molecule, the IC50 (TRKA) was 0.0187 µM, the IC50 (BaF3-ETV6-NTRK3) was 0.278 µM and the IC50 (TRKB) was 0.0203 µM.
For `Fc1cc(F)cc(Oc2ccc3[nH]nc(C#Cc4ccccn4)c3c2)c1` [DYX-092, 5-(3,5-difluorophenoxy)-3-(pyridin-2-ylethynyl)-1H-indazole], the IC50 (BaF3-ETV6-NTRK2) was 2.61 µM, the IC50 (BaF3-CD74-NTRK1) was 3.06 µM and the IC50 (TRKC) was 0.2 µM. The IC50 (TRKA) was 0.0517 µM, the IC50 (BaF3-ETV6-NTRK3) was 2.77 µM and the IC50 (TRKB) was 0.31 µM.
With `Fc1ccc(F)c(Cc2ccc3[nH]nc(/C=C/c4ccccn4)c3c2)c1` [DYX-054, (E)-5-(2,5-difluorobenzyl)-3-(2-(pyridin-2-yl)vinyl)-1H-indazole] the IC50 (BaF3-ETV6-NTRK2) was 0.329 µM, the IC50 (BaF3-CD74-NTRK1) was 0.546 µM and the IC50 (TRKC) was 0.0054 µM. It also gave an IC50 (TRKA) of 0.0071 µM, an IC50 (BaF3-ETV6-NTRK3) of 0.145 µM and an IC50 (TRKB) of 0.0122 µM.
For `Fc1cc(F)cc(Cc2ccc3[nH]nc(/C=C/c4cnccn4)c3c2)c1` [DYX-05, (E)-5-(3,5-difluorobenzyl)-3-(2-(pyrazin-2-yl)vinyl)-1H-indazole], the IC50 (BaF3-ETV6-NTRK2) was 0.678 µM, the IC50 (BaF3-CD74-NTRK1) was 0.58 µM and the IC50 (TRKC) was 0.006 µM. It also gave an IC50 (TRKA) of 0.0016 µM, an IC50 (BaF3-ETV6-NTRK3) of 0.419 µM and an IC50 (TRKB) of 0.0109 µM.
`Clc1cccc(Cc2ccc3[nH]nc(C#Cc4ccccn4)c3c2)c1` [DYX-134Q, 5-(3-chlorobenzyl)-3-(pyridin-2-ylethynyl)-1H-indazole] showed an IC50 (BaF3-ETV6-NTRK2) of 4.62 µM, an IC50 (BaF3-CD74-NTRK1) greater than 10 µM and an IC50 (TRKC) of 0.0403 µM. For the same molecule, the IC50 (TRKA) was 0.0919 µM, the IC50 (BaF3-ETV6-NTRK3) was 2.65 µM and the IC50 (TRKB) was 0.124 µM.
`Fc1cc(F)cc(Oc2ccc3[nH]nc(/C=C/c4ccccn4)c3c2)c1` [DYX-101, (E)-5-(3,5-difluorophenoxy)-3-(2-(pyridin-2-yl)vinyl)-1H-indazole] gave an IC50 (BaF3-ETV6-NTRK2) of 0.571 µM, an IC50 (BaF3-CD74-NTRK1) of 0.595 µM and an IC50 (TRKC) of 0.0248 µM. For the same molecule, the IC50 (TRKA) was 0.0218 µM, the IC50 (BaF3-ETV6-NTRK3) was 0.5 µM and the IC50 (TRKB) was 0.0366 µM.
Molecule `Fc1ccc(Cc2ccc3[nH]nc(/C=C/c4ccccn4)c3c2)c(F)c1` [DYX-060, (E)-5-(2,4-difluorobenzyl)-3-(2-(pyridin-2-yl)vinyl)-1H-indazole] has an IC50 (BaF3-ETV6-NTRK2) greater than 10 µM, an IC50 (BaF3-CD74-NTRK1) greater than 10 µM and an IC50 (TRKC) of 0.62 µM. For the same molecule, the IC50 (TRKA) was 0.818 µM, the IC50 (BaF3-ETV6-NTRK3) was greater than 10 µM and the IC50 (TRKB) was 0.375 µM.
`Fc1ccc(Cc2ccc3[nH]nc(/C=C/c4ccccn4)c3c2)cc1` [DYX-042, (E)-5-(4-fluorobenzyl)-3-(2-(pyridin-2-yl)vinyl)-1H-indazole] gave an IC50 (BaF3-ETV6-NTRK2) greater than 10 µM, an IC50 (BaF3-CD74-NTRK1) of 8.71 µM and an IC50 (TRKC) of 0.114 µM. The IC50 (TRKA) was 0.251 µM, the IC50 (BaF3-ETV6-NTRK3) was 8.38 µM and the IC50 (TRKB) was 0.281 µM.
With `Fc1cc(F)cc(C#Cc2ccc3[nH]nc(/C=C/c4ccccn4)c3c2)c1` [DYX-183, (E)-5-((3,5-difluorophenyl)ethynyl)-3-(2-(pyridin-2-yl)vinyl)-1H-indazole] the IC50 (BaF3-ETV6-NTRK2) was greater than 10 µM, the IC50 (BaF3-CD74-NTRK1) was greater than 10 µM and the IC50 (TRKA) was 0.598 µM. The IC50 (BaF3-ETV6-NTRK3) was greater than 10 µM and the IC50 (TRKB) was greater than 1 µM.
With `Fc1cc(F)cc(Nc2ccc3[nH]nc(/C=C/c4ccccn4)c3c2)c1` [DYX-105, (E)-N-(3,5-difluorophenyl)-3-(2-(pyridin-2-yl)vinyl)-1H-indazol-5-amine] the IC50 (BaF3-ETV6-NTRK2) was 2.62 µM, the IC50 (TRKC) was 0.226 µM and the IC50 (BaF3-ETV6-NTRK3) was 2.27 µM. For the same molecule, the IC50 (TRKB) was 0.353 µM.
